From patent publication US9409952B2, “Peptide-compound cyclization method” (Chugai Seiyaku Kabushiki Kaisha, priority 2011, dated 2016)
Starred links: 1 amine or outer side, 2 acyl side, 3 side chain; linkers in the order of their positions; H or OH if unused. Positions of bridges follow the written chain, without caps; N, C: chain ends. Non-standard residues stand in square brackets, D forms with d. Residues, ends and D or L forms follow the SMILES beside them. *: point of attachment. NMeF = CN[C@@H](Cc1ccccc1)C(=O)O; NMeGABA = CN(CCCC(=O)[*:2])[*:1]; NMeβAla = CN(CCC(=O)[*:2])[*:1]; NMeL = CN[C@@H](CC(C)C)C(=O)O; NMeA = CN[C@@H](C)C(=O)O; Piperidide = C1CCN(*)CC1; Sar = CNCC(=O)O; tBu = CC(C)(C)*

Columns and labels:
[1] = PAMPA (parallel artificial membrane permeability assay); format: in vitro ADME; details: PAMPA; membrane permeation rate (Pe); 50 mM MOPSO buffer pH 6.5 with 5.0% glycocholic acid, 37° C., 18 hours; read-out: iPAMPA Pe
In short: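 Artificial membrane was 10% (w/v) egg lecithin plus 0.5% (w/v) cholesterol in dodecane on a PVDF filter. A 10 mM DMSO stock was added at 0.5% (v/v) to donor buffer (50 mM MOPSO, pH 6.5, 5.0% glycocholic acid). After 18 h at 37 °C, LC/MS or LC/UV gave donor and acceptor levels for Pe.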

[2] = Metabolic stability in human hepatic microsome; format: in vitro ADME; details: microsomes, pH 7.4; human hepatic microsome, NADPH(+); read-out: CL NADPH(+)

SMILES | Papp at 18 hours, 50 µM [1] | microsomal CLint at 1 uM [2]
CC(C)C[C@H]1C(=O)N(C)[C@@H](Cc2ccccc2)C(=O)N(C)[C@@H](CC(C)C)C(=O)N[C@@H]([C@@H](C)O)C(=O)N(C)CC(=O)N[C@@H](COC(C)(C)C)C(=O)N(C)[C@@H](CC(C)C)C(=O)N[C@H](C(=O)N2CCCCC2)CC(=O)N1C [DP-689] ([NMeL][NMeF][NMeL]T[Sar]S(tBu)[NMeL]D-Piperidide; lactam N-8) | 44 ×10⁻⁶ cm/s | 103 µL/min/mg
CC(C)C[C@@H]1NC(=O)[C@H]([C@@H](C)O)NC(=O)[C@H](CC(C)C)N(C)C(=O)CN(C)C(=O)[C@H](Cc2ccccc2)N(C)C(=O)[C@H](C(C)C)NC(=O)C[C@@H](C(=O)N2CCCCC2)NC(=O)[C@H](CC(C)C)N(C)C1=O [DP-690] (V[NMeF][Sar][NMeL]TL[NMeL]D-Piperidide; lactam N-8) | 33 ×10⁻⁶ cm/s | 217 µL/min/mg
CC(C)C[C@@H]1NC(=O)CN(C)C(=O)[C@H](CC(C)C)N(C)C(=O)[C@H]([C@@H](C)O)NC(=O)[C@H](CC(C)C)N(C)C(=O)[C@H](Cc2ccccc2)N(C)C(=O)[C@H](C(C)C)NC(=O)C[C@@H](C(=O)N2CCCCC2)NC1=O [DP-691] (V[NMeF][NMeL]T[NMeL][Sar]LD-Piperidide; lactam N-8) | 33 ×10⁻⁶ cm/s | 326 µL/min/mg
CC(C)C[C@@H]1NC(=O)C[C@@H](C(=O)N2CCCCC2)NC(=O)[C@H](COC(C)(C)C)NC(=O)[C@H](CC(C)C)N(C)C(=O)CN(C)C(=O)[C@H]([C@@H](C)O)NC(=O)[C@H](CC(C)C)N(C)C(=O)[C@H](Cc2ccccc2)N(C)C1=O [DP-692] (L[NMeF][NMeL]T[Sar][NMeL]S(tBu)D-Piperidide; lactam N-8) | 29 ×10⁻⁶ cm/s | 212 µL/min/mg
CC(C)C[C@H]1C(=O)N(C)[C@@H](CC(C)C)C(=O)N[C@H](C(=O)N2CCCCC2)CC(=O)N[C@@H](C(C)C)C(=O)N(C)[C@@H](Cc2ccccc2)C(=O)N[C@@H]([C@@H](C)O)C(=O)N(C)CC(=O)N[C@@H](COC(C)(C)C)C(=O)N1C [DP-693] (V[NMeF]T[Sar]S(tBu)[NMeL][NMeL]D-Piperidide; lactam N-8) | 35 ×10⁻⁶ cm/s | 246 µL/min/mg
CC(C)C[C@H]1C(=O)N(C)[C@@H](CC(C)C)C(=O)N[C@@H](COC(C)(C)C)C(=O)N[C@H](C(=O)N2CCCCC2)CC(=O)N[C@@H](C(C)C)C(=O)N(C)[C@@H](Cc2ccccc2)C(=O)N(C)CC(=O)N[C@@H]([C@@H](C)O)C(=O)N1C [DP-694] (V[NMeF][Sar]T[NMeL][NMeL]S(tBu)D-Piperidide; lactam N-8) | 33 ×10⁻⁶ cm/s | 170 µL/min/mg
CC(C)C[C@H]1C(=O)N(C)[C@@H](CC(C)C)C(=O)N[C@@H](COC(C)(C)C)C(=O)N[C@H](C(=O)N2CCCCC2)CC(=O)N(C)CCCC(=O)N(C)[C@@H](Cc2ccccc2)C(=O)N[C@@H]([C@@H](C)O)C(=O)N(C)CC(=O)N1C [DP-695] ([NMeGABA][NMeF]T[Sar][NMeL][NMeL]S(tBu)D-Piperidide; lactam N-8) | 15 ×10⁻⁶ cm/s | 47 µL/min/mg
CC(C)C[C@@H]1NC(=O)[C@H]([C@@H](C)O)NC(=O)[C@H](CC(C)C)N(C)C(=O)[C@H](Cc2ccccc2)N(C)C(=O)[C@H](C)N(C)C(=O)C[C@@H](C(=O)N2CCCCC2)NC(=O)[C@H](COC(C)(C)C)NC(=O)[C@H](CC(C)C)N(C)C1=O [DP-696] ([NMeA][NMeF][NMeL]TL[NMeL]S(tBu)D-Piperidide; lactam N-8) | 37 ×10⁻⁶ cm/s | 194 µL/min/mg
CC(C)C[C@H]1C(=O)N[C@H](C(=O)N2CCCCC2)CC(=O)N(C)[C@@H](C)C(=O)N(C)[C@@H](Cc2ccccc2)C(=O)N(C)[C@@H](CC(C)C)C(=O)N[C@@H]([C@@H](C)O)C(=O)N(C)CC(=O)N[C@@H](COC(C)(C)C)C(=O)N1C [DP-697] ([NMeA][NMeF][NMeL]T[Sar]S(tBu)[NMeL]D-Piperidide; lactam N-8) | 35 ×10⁻⁶ cm/s | 87 µL/min/mg
CC(C)C[C@@H]1NC(=O)[C@H](CC(C)C)N(C)C(=O)[C@H](COC(C)(C)C)NC(=O)[C@H](Cc2ccccc2)N(C)C(=O)[C@H](C)N(C)C(=O)C[C@@H](C(=O)N2CCCCC2)NC(=O)[C@H](CC(C)C)N(C)C(=O)[C@H]([C@@H](C)O)NC1=O [DP-698] ([NMeA][NMeF]S(tBu)[NMeL]LT[NMeL]D-Piperidide; lactam N-8) | 31 ×10⁻⁶ cm/s | 142 µL/min/mg
CC(C)C[C@H]1C(=O)N(C)[C@@H](Cc2ccccc2)C(=O)N[C@H](C(=O)N2CCCCC2)CC(=O)N(C)[C@@H](C)C(=O)N[C@@H](C)C(=O)N[C@@H]([C@@H](C)O)C(=O)N(C)[C@@H](CC(C)C)C(=O)N[C@@H](Cc2ccccc2)C(=O)N1C [DP-699] ([NMeA]AT[NMeL]F[NMeL][NMeF]D-Piperidide; lactam N-8) | 29 ×10⁻⁶ cm/s | 81 µL/min/mg
CC(C)C[C@H]1C(=O)N[C@@H]([C@@H](C)O)C(=O)N[C@@H](C)C(=O)N(C)[C@@H](Cc2ccccc2)C(=O)N[C@H](C(=O)N2CCCCC2)CC(=O)N(C)[C@@H](C)C(=O)N(C)[C@@H](CC(C)C)C(=O)N[C@@H](Cc2ccccc2)C(=O)N1C [DP-700] ([NMeA][NMeL]F[NMeL]TA[NMeF]D-Piperidide; lactam N-8) | 49 ×10⁻⁶ cm/s | 398 µL/min/mg
CC(C)C[C@@H]1NC(=O)[C@@H](C(C)C)NC(=O)C[C@@H](C(=O)N2CCCCC2)NC(=O)[C@H](Cc2ccccc2)N(C)C(=O)[C@H](CC(C)C)N(C)C(=O)[C@H](Cc2ccccc2)NC(=O)[C@H](C)N(C)C(=O)[C@H]([C@@H](C)O)NC1=O [DP-701] ([dV]LT[NMeA]F[NMeL][NMeF]D-Piperidide; lactam N-8) | 31 ×10⁻⁶ cm/s | 69 µL/min/mg
CC(C)C[C@@H]1NC(=O)[C@@H](C(C)C)NC(=O)C[C@@H](C(=O)N2CCCCC2)NC(=O)[C@H](Cc2ccccc2)NC(=O)[C@H](CC(C)C)N(C)C(=O)[C@H](Cc2ccccc2)N(C)C(=O)[C@H](C)N(C)C(=O)[C@H]([C@@H](C)O)NC1=O [DP-702] ([dV]LT[NMeA][NMeF][NMeL]FD-Piperidide; lactam N-8) | 25 ×10⁻⁶ cm/s | 123 µL/min/mg
CC(C)C[C@@H]1NC(=O)[C@H](Cc2ccccc2)N(C)C(=O)[C@@H](C(C)C)NC(=O)C[C@@H](C(=O)N2CCCCC2)NC(=O)[C@H](Cc2ccccc2)NC(=O)[C@H](CC(C)C)N(C)C(=O)[C@H]([C@@H](C)O)NC(=O)[C@H](CC(C)C)N(C)C1=O [DP-703] ([dV][NMeF]L[NMeL]T[NMeL]FD-Piperidide; lactam N-8) | 34 ×10⁻⁶ cm/s | 222 µL/min/mg
CC(C)C[C@H]1C(=O)N[C@H](C(=O)N2CCCCC2)CC(=O)N(C)CCC(=O)N[C@@H]([C@@H](C)O)C(=O)N(C)[C@@H](C)C(=O)N[C@@H](COC(C)(C)C)C(=O)N(C)[C@@H](Cc2ccccc2)C(=O)N(C)[C@@H](CC(C)C)C(=O)N1C [DP-704] ([NMeβAla]T[NMeA]S(tBu)[NMeF][NMeL][NMeL]D-Piperidide; lactam N-8) | 29 ×10⁻⁶ cm/s | 83 µL/min/mg
CC(C)C[C@H]1C(=O)N(C)[C@@H](CC(C)C)C(=O)N[C@@H]([C@@H](C)O)C(=O)N(C)[C@@H](Cc2ccccc2)C(=O)N[C@@H](COC(C)(C)C)C(=O)N(C)[C@@H](CC(C)C)C(=O)N[C@H](C(=O)N2CCCCC2)CC(=O)N(C)CCC(=O)N1C [DP-705] ([NMeβAla][NMeL][NMeL]T[NMeF]S(tBu)[NMeL]D-Piperidide; lactam N-8) | 49 ×10⁻⁶ cm/s | 265 µL/min/mg
